Where a SMILES comes first, the peptide text is derived from it. [ ]: non-standard residue; d: D form. The star is where a group is joined. Gly(N-(2R-Ph-propyl)) = C[C@@H](CNCC(=O)O)c1ccccc1; Piperidin1yl(4-NH2,4-COOH) = NC1(C(=O)O)CCN(*)CC1; dGly(cPent) = N[C@@H](C(=O)O)C1CCCC1; dAla(cPr) = N[C@H](CC1CC1)C(=O)O; X1 = CC(=O)N1CC2(CCN(*)CC2)C1
Columns and labels:
[1] = tested on: Rat hepatocyte; assay: Metabolic stability (HMS) study in rat hepatocytes; assay type: in vitro ADME; conditions: 0.5×10^6 cells/mL
Protocol: (§1) To test the metabolic stability of the test compound in human and rat hepatocytes.
(§2) 2.1 Test Compound (10 mM), Reference Substance: 7-Ethoxycoumarin, 30 mM, 7-Hydroxycoumarin, Reference Substance, 30 mM
(§3) Culture medium for thawing: Williams' E medium containing 5% fetal bovine serum and 30% Percoll solution and other auxiliary materials.
(§4) Culture medium for incubation: Williams' E medium (without phenol red), wherein containing 2 mM L-glutamine and 25 mM of hydroxyethyl piperazine ethanesulfonic acid.
(§5) Termination solution: acetonitrile containing 200 ng/mL of tolbutamide and labetalol as internal standard.
(§6) Dilution solution: ultrapure water. […]
(§7) The elimination rate constant k of the test compound and the control compound in hepatocyte was calculated by plotting the logarithm of the time to the residual rate, and the half-life (T1/2) and the intrinsic clearance rate in vitro (CLint) were obtained by the elimination rate constant k with the following formula: T1/2=0.693/k CLint(hep)=k/number of cells per mL(million cells/mL) CLint(liver)=CLint(hep)×ratio of liver weight to body weight×number of hepatocytes per gram of liver […]

[2] = tested on: Human hepatocyte; assay: Metabolic stability (HMS) study in human hepatocytes; assay type: in vitro ADME; conditions: 0.5×10^6 cells/mL
Protocol: as §1, §2, §3, §4, §5, §6, §7

[3] = Plasma protein binding rate (PPB) test, human plasma; assay type: in vitro ADME; conditions: 2 μM, equilibrium dialysis 4 hours 37° C.
Protocol: (§8) To test the protein binding rate of the test compound in human and SD rat plasma.
(§9) The frozen plasma was thawed in flowing cold tap water, and then the plasma was centrifuged at 3220×g for 5 minutes to remove the suspension and precipitate. The pH of plasma was determined, and only the plasma with a pH between 7.0 to 8.0 could be used for experiments.
(§10) The experiment was used a 96-well balanced dialysis plate (HTDialysis device) to determine the plasma protein binding rate of the test compound and control compound. Before the experiment was started, the dialysis membrane was pretreated according to the description, and then the dialysis device was assembled as required. The blank plasma of human and SD rats (plasma purchased from BioreclamationIVT) was taken, and the test compound working solution or the warfarin working solution was added to make the final concentration of the test compound and warfarin in the plasma samples both 2 μM. The sample was mixed well. […] The unbound rate (Unbound) %, bound rate (Bound) % and recovery rate (Recovery) % of the compound were calculated by the following formula: % Unbound=100*FC/TC, % Bound=100−% Unbound, % Recovery=100*(FC+TC)/T0. […]

[4] = Plasma protein binding rate (PPB) test, SD rat plasma; assay type: in vitro ADME; conditions: 2 μM, equilibrium dialysis 4 hours 37° C.
Protocol: as §8, §9, §10

[5] = In vivo pharmacokinetic study in SD rats; parameters: species or system Sprague Dawley rats; conditions: intravenous 3 mg/kg
Protocol: To test the in vivo pharmacokinetics of test compound in SD rats
Sprague Dawley rats (male, 6 to 10 weeks old, purchased from Beijing Vital River Laboratory Animal Co., LTD)
Compound 1 was mixed with normal saline to prepare a clear solution of 1 mg/mL for injection group administration, filtered by microporous membranes and ready for use. The test compound was administered intravenously at 3 mg/kg, and the solvent for intravenous administration was normal saline. Plasma samples were collected at 0, 0.083, 0.25, 0.5, 1.0, 2.0, 4.0, 8.0 and 24 hours after administration. The plasma concentration was determined by LC-MS/MS method, and the relevant pharmacokinetic parameters were calculated by non-compartmental model linear logarithmic trapezoidal method using WinNonlin™ Version 6.3 (Pharsight, Mountain View, CA) pharmacokinetic software.

[6] = target: Kappa receptor (Homo sapiens (Human), UniProt P41145); assay: cAMP test of Kappa receptor; assay type: cell-based; conditions: KOR cAMP cells; read-out: EC50 value of the compound to Kappa receptor
Protocol: Experimental Embodiment 1: cAMP Test of Kappa Receptor
Experimental buffer: 1*HBSS (+/+) (SIGMA #H1387)+20 mM HEPES (LONZA #17-737E)
Stimulation buffer (STB): 200 μM IBMX (SIGMA #I7018) and 3 μM NKH477 (SIGMA #N3290) experimental buffer
Experimental Methods and Steps
The compound powder was dissolved with DMSO (Amresco #0231), and the concentration of the compound solution was 10 mM. 1 μL of the test compound was taken, and 49 μL of DMSO was added thereto, and the mixture was diluted to 200 μM of solution.
A LDV 384-well plate was taken, and the compound solution diluted in the previous step was respectively added to wells A1 to H1; a pre-prepared 200 μM of U-50488 (Tocris #0495/25) was taken and added to well P1; 10.8 μL of DMSO was added to each well of A2 to A11, […], and P2 to P11, respectively, and the mixture was centrifuged at 1000 rpm for 30 seconds.
Continuous gradient dilutions of compounds were performed with bravo, and the first column of LDV plate prepared in the previous step was taken as the initial concentration column, and 5 μL was sucked into the next column each time and blown and mixed evenly.
After the dilution was completed, 10 μL 200 μM of U-50488 was added to well A24 as HPE (100% inhibition rate activity), and 10 μL of DMSO was added to well P24 as ZPE (0% inhibition rate activity), and the mixture was centrifuged at 1000 rpm for 30 seconds.
According to the experimental layout, the compound solution diluted in the previous step was transferred to the experimental plate Corning 3824 with Echo 550, 50 nL per well.
A set of frozen KOR cAMP cells was taken from the −80° C. refrigerator and thawed in a 37° C.-water bath.
After thawing, the cells in the tube were aspirated into a 15 mL centrifuge tube, and 4 mL of experimental buffer was added thereto. […]
Cell density was counted and adjusted on a cell counter to 1.5*10^6 cells/mL. […]
Experimental plates were read with Envision.

SMILES: C[C@@H](CNCC(=O)N[C@H](Cc1ccccc1)C(=O)N[C@H](CC1CC1)C(=O)N[C@H](CCCCN)C(=O)N1CCC(N)(C(=O)O)CC1)c1ccccc1 [Compound 1] (H-[Gly(N-(2R-Ph-propyl))][dF][dAla(cPr)][dK]-{Piperidin1yl(4-NH2,4-COOH)})
- Intrinsic clearance rate in liver [1]: <29.9 mL/min/kg
- Intrinsic clearance rate in liver [2]: <17.8 mL/min/kg
- Unbound rate in plasma [3]: 55.2%
- Unbound rate in plasma [4]: 44.7%
- AUC0-last [5]: 7.2 µM·h
- Cl (total clearance rate) [5]: 9.90 mL/min/kg
- T1/2 (elimination half-life) [5]: 1.33 h
- Vdss (steady-state apparent volume of distribution) [5]: 0.29 L/kg
- C0 ([5]; read-out: C0 (initial concentration)): 17.6 µM
- EC50 [6]: 0.085 nM

SMILES: CC(=O)N1CC2(CCN(C(=O)[C@@H](CCCCN)NC(=O)[C@@H](CC3CC3)NC(=O)[C@@H](Cc3ccccc3)NC(=O)CNC[C@H](C)c3ccccc3)CC2)C1 [Compound 4] (H-[Gly(N-(2R-Ph-propyl))][dF][dAla(cPr)][dK]-X1)
- EC50 [6]: 0.034 nM

SMILES: C[C@@H](CNCC(=O)N[C@H](Cc1ccccc1)C(=O)N[C@@H](C(=O)N[C@H](CCCCN)C(=O)N1CCC(N)(C(=O)O)CC1)C1CCCC1)c1ccccc1 [Compound 2] (H-[Gly(N-(2R-Ph-propyl))][dF][dGly(cPent)][dK]-{Piperidin1yl(4-NH2,4-COOH)})
- EC50 [6]: 0.311 nM
